In patent US10149818B2 (UCB PHARMA GMBH, priority 2010, dated 2018):
In brackets after ≈: the same amount, converted by molar mass.

Tests used:
[1] = tested on: subjects with partial-onset seizures; assay: PK-PD modeling of seizure frequency, Emax model, pooled clinical trials (Example 54); assay type: in vivo, human
From the text: Objectives of the PK-PD analysis were to evaluate and describe the correlation between the LCM plasma concentration over time (PK parameter) and the reduction of daily seizures over time (PD parameter) based on the pooled data from the previous clinical human trials.
The evaluation of PK-PD modeling was done based on the Emax model.
The following Table 8 summarizes the PK-PD modeling results using the Emax model.
The slope of the linear regression is equal to the mean daily number of seizures.
Based on the relative difference of the individual slopes during Titration and Maintenance Phase vs Baseline slope and the approximated AUCT,ss,m, the PK-PD evaluation was performed using a linear model, the Emax model, and the Emax 100 model. […] Finally, the Emax model had the lowest weighted sum of squares and was therefore selected as the most appropriate PK-PD model to describe the data. […] The AUC50 is defined as the AUC[…],ss that is needed in individuals to achieve 50% of the maximum effect (decrease in seizure frequency).

[2] = IR tablets twice daily; average distribution volume of 50 liters; cited from earlier work

## COC[C@@H](NC(C)=O)C(=O)NCc1ccccc1 [lacosamide, (R)-2-Acetamido-N-benzyl-3-methoxypropionamide]
[1]; 50% of the maximum effect
  decrease in partial seizure frequency at AUC50: 35%
[1]; AUC of 67 μg/mL*h (mean dose 200 mg LCM bid in a typical subject)
  decrease of seizures as % of the maximum effect: 65%
[1]; Emax model
  AUC,tau,ss corresponding to kd: 35 µg·h/mL
[1]; Homo sapiens, Emax model, plasma concentration, read-out: kd, concentration for half of the maximum effect
  EC50: 2.92 µg/mL (≈ 11.7 µM)
[1]; human, in vivo
  decrease of seizures as % of the maximum effect: 74%
[2]
  maximum dosage-normalized lacosamide steady state plasma levels (Cmax, ss, norm): 40 to 43 ng/mL/mg
